According to patent publication US8163742B2, “Di-amino-substituted heterocyclic compounds and methods of use” (Amgen Inc., priority 2006, dated 2012):
pIC50: −log10 of the molar value.

Tested on: SCF-stimulated UT-7 cells
Assay: SCF stimulated UT7 proliferation/survival assay
Format: cell-based
Conditions: Homo sapiens, average value
Description: SCF and GM-CSF Stimulated UT7 Proliferation/Survival Assay:
The purpose of this assay is to test the general anti-proliferative/cytotoxic effect of small molecule compounds on SCF or GM-CSF-stimulated UT-7 cells. Preventing SCF stimulated proliferation/survival is consistent with an on-mechanism effect whereas inhibition of GM-CSF driven proliferation/survival is indicative of off-target effects. UT-7 is a factor dependent human megakaryoblastic leukemia cell line that can be grown in either IL-3, GM-CSF, EPO or SCF (these cells have been confirmed to carry wild type c-kit receptor). Cells are maintained in growth media (IMDM, 10% HI-FBS, 1×PGS, 1 ng/mL GM-CSF). […] The amount of ATP is then measured as a surrogate marker for cell viability. This is accomplished by adding 50 μL of Perkin Elmer ATP 1 step reagent (as per instructed in the reagent manual, Cat. No. 6016739), incubating at RT for 15 min and reading the luminescence with a Perkin Elmer Topcount NXT™HTS (model c384) plate reader. The amount of SCF or GM-CSF stimulated viable cells in the presence of compound compared with in the presence of vehicle alone (HI control) is calculated using the formula: % control (POC)=(cpd−average LO)/(average HI−average LO)*100. […]

FC(F)(F)c1cccc(Nc2noc3c(Nc4nccc(-c5cccnc5)n4)c(Cl)ccc23)c1 [Example 1, 6-chloro-N-7-(4-(pyridin-3-yl)pyrimidin-2-yl)-N3-(3-(trifluoromethyl)phenyl)benzo[d]isoxazole-3,7-diamine]
pIC50: ~7.36
